Laboratory results from PMC3943701 (Biochimica et biophysica acta, 2013).
Entries after “also recorded” stand apart in the source; their conditions may differ. Where two headings read alike, the source gives them in different places.

Assays:
[1] = in solution, no reference given, cited from earlier work
influenza A/M2 protein = conditions: sensitive circulating influenza strains; ref [2], [3]; cited from earlier work
M2 His37 = conditions: addition of amantadine; ref [17]; cited from earlier work
[2] = tested on: M2(19–62) wild type construct; assay type: biochemical, influenza A virus (A/Udorn/72); conditions: liposomes pre-mixed with amantadine HCl 3 h, 18°C
[3] = tested on: M2(19–62) thiazolylalanine construct; assay type: biochemical, influenza A virus (A/Udorn/72); conditions: pH 2.4

Structure (SMILES)	solution pKa of side chain [1]	solution pKa of side chain ([1]; listed as imidazole)	inhibition of M2 proton transport (in words) (influenza A/M2 protein)	effect on His37 ring flip, protonation and deprotonation (in words) (M2 His37)	inhibitory effect of amantadine on flux (in words) ([2]; bathing buffer pH 2.4)	amantadine sensitivity of flux (in words) ([2]; bathing buffer pH 7.4 and 4.9)	amantadine inhibition of currents (in words) [3]
N[C@@H](Cc1c[nH]cn1)C(=O)O [histidine]	6.5	~ 6.5	–	–	–	–	–
CC(N)C12CC3CC(CC(C3)C1)C2 (centres unmarked) [rimantadine]	–	–	inhibited	–	–	–	–
NC12CC3CC(CC(C3)C1)C2 [amantadine]	–	–	inhibited	significantly inhibited	No inhibitory effect; also recorded: begins to be lost	amantadine-sensitive	robust amantadine inhibition
